Laboratory results published in article PMC3380724 (BMC Neuroscience, 2012).

Tests used:
[1] = biological target: T1, h5-HT2AR (Homo sapiens, UniProt P28223); assay: Plate immunoassay for pERK, 5-HT2AR-CHO cells; format: cell-based; conditions: for pERK response after serum-replete preincubation: overnight serum-replete preincubation (Figure 7)
[2] = tested on: parental CHO-K1 cells; assay: Plate immunoassay for pERK, parental CHO-K1 cells; format: cell-based, Chinese hamster
[3] = tested on: parental CHO-K1 cells; assay: Intracellular calcium (Cai++) release assay, parental CHO-K1 cells; format: cell-based, Chinese hamster
Description: Changes in Cai^++ levels were determined using the calcium-sensitive dye Calcium 4 (FLIPR No-wash kit, Molecular Devices, Sunnyvale CA, part #R8142). In our hands, the Molecular Devices kit produced results with reasonable signal intensity and reproducibility compared to other commercially available reagents (e.g., Fluo-3 and Fluo-4) without the necessity of dye removal or washing prior to measurements (data not shown). In addition to convenience, the lower number of manipulations required by this kit allowed for more rapid collection of data and decreased the likelihood of cell disturbance or loss.
Cells were plated in serum-replete medium at indicated densities in black-sided, clear bottom 96-well tissue culture plates. […] When plating volume was less than 150 μl, cells were less evenly distributed (visual observation; data not quantified), so we used 150 to 200 μl. […]
Fluorescence (λex = 485 nm, λem = 525 nm) was measured with a FlexStation3 (Molecular Devices). […] The CHO cells remained attached under these conditions; if using other cells lines, attachment should be monitored and reagent addition conditions modified as necessary.
Following addition of test reagent, fluorescence was recorded every 1.7 sec for 90-120 sec. […] Maximum peak height was determined by the FlexStation software (SoftMax Pro 5.2) for each well. […]

[4] = biological target: T1, h5-HT2AR; assay: Intracellular calcium (Cai++) release assay, Calcium 4 dye, 5-HT2AR-CHO cells; conditions: for Cai++ response when dye added into existing growth medium: "Serum Replete" protocol, 1 μM agonist (Figure 2)
[5] = biological target: T2, unedited h5-HT2CR (Homo sapiens, UniProt P28335); assay: Intracellular calcium (Cai++) release assay, Calcium 4 dye, 5-HT2CR-CHO cells
T2 sequence (P28335 33-458): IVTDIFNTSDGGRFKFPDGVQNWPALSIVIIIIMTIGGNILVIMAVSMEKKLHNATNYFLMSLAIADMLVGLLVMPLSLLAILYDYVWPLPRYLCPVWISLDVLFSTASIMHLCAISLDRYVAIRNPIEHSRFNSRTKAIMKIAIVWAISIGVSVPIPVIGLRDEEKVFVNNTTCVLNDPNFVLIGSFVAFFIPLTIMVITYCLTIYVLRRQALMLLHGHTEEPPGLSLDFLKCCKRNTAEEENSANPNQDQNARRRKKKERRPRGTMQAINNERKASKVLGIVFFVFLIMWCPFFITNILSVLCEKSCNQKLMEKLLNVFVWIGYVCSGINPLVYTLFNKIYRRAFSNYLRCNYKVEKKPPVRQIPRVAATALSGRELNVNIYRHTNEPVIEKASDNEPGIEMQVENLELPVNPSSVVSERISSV

[6] = biological target: T2, unedited h5-HT2CR; assay: cell-based
[7] = biological target: T2, unedited h5-HT2CR; conditions: 5-HT2CR-CHO cells
[8] = EC50 values for agonist-stimulated Cai++ release, 5-HT2CR-CHO cells, Serum-replete overnight preincubation

T1 sequence (P28223 whole entry): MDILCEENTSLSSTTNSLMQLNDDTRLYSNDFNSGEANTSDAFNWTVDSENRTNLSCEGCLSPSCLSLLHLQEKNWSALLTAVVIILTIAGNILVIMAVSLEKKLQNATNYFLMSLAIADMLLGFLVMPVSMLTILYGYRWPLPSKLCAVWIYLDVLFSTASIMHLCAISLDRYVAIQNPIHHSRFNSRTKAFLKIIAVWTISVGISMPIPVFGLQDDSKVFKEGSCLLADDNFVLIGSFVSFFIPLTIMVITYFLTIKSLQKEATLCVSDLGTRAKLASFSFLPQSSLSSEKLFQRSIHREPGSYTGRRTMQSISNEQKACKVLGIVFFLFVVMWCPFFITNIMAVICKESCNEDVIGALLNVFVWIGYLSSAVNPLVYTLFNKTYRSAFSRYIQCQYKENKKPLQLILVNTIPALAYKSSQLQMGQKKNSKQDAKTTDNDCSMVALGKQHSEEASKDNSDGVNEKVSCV

## NCCc1c[nH]c2ccc(O)cc12 [5-HT, serotonin]
[1]
  pERK response after serum-replete preincubation: suppressed
[1]; serum-starved overnight, 1 μM 5-HT
  Time of peak ERK activation: 5 min
[2]
  pERK response: no detectable response
[3]; above 10^-6 M 5-HT, in a few experiments, not consistent
  Cai++ release above baseline: < 5%
[3]; any concentration of 5-HT (Figure 4B inset)
  Cai++ release: no Cai^++ release
[4]
  Cai++ response when dye added into existing growth medium: dramatically reduced

## COc1cc(CC(C)N)c(OC)cc1I (stereo not shown) [DOI, 1-[2,5-dimethoxy-4-iodophenyl]-2 aminopropane]
[1]; 5 min stimulation
  Concentration giving maximal pERK response: ~1 μM
[1]
  pERK response after serum-replete preincubation: suppressed
[5]; 5-HT2CR-CHO cells, overnight serum-replete preincubation (Figure 3D)
  Cai++ response after serum preincubation: virtually eliminated
[5]; [8]
  EC50: > 100000 nM
[5]; EC50 values for agonist-stimulated Cai++ release, 5-HT2CR-CHO cells, Serum-starved overnight preincubation
  EC50: 5.4 nM
[6]
  EC50: 19 nM
[7]; 5 min stimulation
  Concentration giving maximal pERK response: ~1 μM
[7]; overnight serum-replete preincubation (Figure 7)
  pERK response after serum-replete preincubation: suppressed
[4]
  Cai++ response when dye added into existing growth medium: completely eliminated
[4]; overnight serum-replete preincubation (Figure 3B)
  Cai++ response after serum preincubation: virtually eliminated

## COc1ccc(NC(=O)c2ccc(-c3ccc(-c4noc(C)n4)cc3C)cc2)cc1OCCN(C)C [SB216641]
[5]; 5-HT2CR-CHO cells, 10^-6 M SB216641, any concentration of 5-HT
  Effect of 5-HT1BR antagonist on Cai++ concentration response to 5-HT: no significant difference

## Cc1cc2c(cc1Cl)N(C(=O)Nc1ccc(Oc3cccnc3C)nc1)CC2 [SB242084]
[5]
  EC50: 2.3 nM
[5]; 5-HT2CR-CHO cells, 15 min pretreatment, 1 μM 5-HT
  Inhibition of 5-HT-stimulated Cai++ response by antagonist: completely inhibited

## Clc1cncc(N2CCNCC2)n1 [MK212]
[5]; 5-HT2CR-CHO cells preincubated in serum-replete medium
  Cai++ response after serum-replete preincubation: greatly decreased
[5]; [8]
  EC50: > 11000 nM
[5]; serum-starved 5-HT2CR-CHO cells
  Cai++ response magnitude: low magnitude
[4]; Serum-replete overnight preincubation
  EC50 values for agonist-stimulated Cai++ release: No response
[4]; Serum-starved overnight preincubation
  EC50 values for agonist-stimulated Cai++ release: No response
[4]; any tested concentration up to 10^-4 M
  Cai++ release: no detectable Cai^++ release
